Test systems include RPMI-8226 leukemia; SN12C renal; KM12 colon; SF-268 CNS; MOLT-4 leukemia; NCI/ADR-RES ovarian; SF-539 CNS; ACHN renal; U251 CNS; OVCAR-3 ovarian; SK-OV-3 ovarian.
Assay in all cases: inhibition of tumour cell growth, NCI panel, 48 h

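Protocol summary: plate cells (96-well), add compound at 5 concentrations, incubate 48 h, interpolate endpoints linearly. Abbreviation: GI50, concentration required for 50% inhibition of growth. At the TGI there is no net growth.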 Where a SMILES comes first, the peptide text is derived from it. The star is where a group is joined. Cbz = O=C(OCc1ccccc1)*; Bn = c1ccc(C*)cc1

The values below come from PubChem BioAssay (NCI).

With `COC(=O)C(Cc1ccc(O)cc1)NC(=O)C(COCc1ccccc1)NC(=O)OCc1ccccc1` (configuration not stated) (Cbz-Ser(Bn)-Tyr-OMe; configuration not given here), the TGI with RPMI-8226 leukemia is greater than 100 µM; with SN12C renal, 32.7 µM; in the test on KM12 colon, 35 µM; in the test on SF-268 CNS, 31.9 µM; with MOLT-4 leukemia, greater than 100 µM; in the test on NCI/ADR-RES ovarian, 38.8 µM. Further, the TGI in the test on SF-539 CNS amounted to 34.2 µM; in the test on ACHN renal, 31.2 µM; with U251 CNS, 33.5 µM; in the test on OVCAR-3 ovarian, 31.8 µM; with SK-OV-3 ovarian it was 31.4 µM.

Take `C1CSCCSCSCCS1`: the TGI in the test with SN12C renal, with KM12 colon, in the test on SF-268 CNS, in the test with NCI/ADR-RES ovarian, in the test with SF-539 CNS and in the test on ACHN renal was greater than 100 µM each time. Besides, the TGI in the test on U251 CNS, with OVCAR-3 ovarian and in the test on SK-OV-3 ovarian was greater than 100 µM throughout.

As for `CC1C[C@]2(C[C@@H](C)C(=O)O2)OC2CC3(C)C4CCC5C(C)(C)OC(=O)CC[C@@]56C[C@@]46CC[C@]3(C)C12` (some centres not stated), the TGI with RPMI-8226 leukemia, in the test on SN12C renal, in the test with KM12 colon, in the test with SF-268 CNS, in the test with MOLT-4 leukemia and in the test on SF-539 CNS was greater than 100 µM each time. Besides, the TGI in the test with ACHN renal and in the test with U251 CNS was greater than 100 µM each time.

For `NC(CCP(=O)(O)O)C(=O)O` (configuration not stated), the TGI in the test on RPMI-8226 leukemia, in the test on SN12C renal, with KM12 colon, with SF-268 CNS, with MOLT-4 leukemia and in the test with NCI/ADR-RES ovarian was greater than 100 µM throughout. The TGI in the test on ACHN renal, with U251 CNS and in the test on OVCAR-3 ovarian was greater than 100 µM in each case.

Turning to `CS(=O)(=O)c1ccc2nc(-c3ccc(O)cc3)sc2c1`, the TGI with RPMI-8226 leukemia is 35.7 µM; with SN12C renal, 35.5 µM; in the test with KM12 colon it was 30.2 µM; with SF-268 CNS, 32.3 µM; in the test with MOLT-4 leukemia it was greater than 100 µM; in the test with NCI/ADR-RES ovarian, 36.2 µM. The TGI in the test on SF-539 CNS worked out at 23.6 µM; in the test with ACHN renal it was 32.4 µM; in the test with U251 CNS it was 39.5 µM; with OVCAR-3 ovarian, 31.8 µM; in the test with SK-OV-3 ovarian it was 31.3 µM.

For the compound `O=S(=O)(O)c1ccc2c(N=Nc3ccc(S(=O)(=O)O)c4ccccc34)c(O)c(S(=O)(=O)O)cc2c1`, the TGI in the test with RPMI-8226 leukemia, in the test with SN12C renal, in the test on KM12 colon, in the test on SF-268 CNS, in the test with MOLT-4 leukemia and in the test on NCI/ADR-RES ovarian was greater than 100 µM each time. The TGI in the test with SF-539 CNS, in the test with ACHN renal, with U251 CNS, in the test on OVCAR-3 ovarian and with SK-OV-3 ovarian was greater than 100 µM in each case.

As for `O=C(Nc1ccc(Cl)cc1)c1cc([N+](=O)[O-])ccc1O`, the TGI with RPMI-8226 leukemia was 10.2 µM; with SN12C renal, greater than 50.9 µM; in the test on KM12 colon, 24.5 µM; in the test with SF-268 CNS it was 47.7 µM; with MOLT-4 leukemia it was 10.5 µM; in the test with SF-539 CNS, greater than 34 µM. Also, the TGI in the test on ACHN renal is greater than 100 µM; in the test with U251 CNS, greater than 70.7 µM; in the test with OVCAR-3 ovarian, 7.56 µM; in the test on SK-OV-3 ovarian, 25.4 µM.

In the case of `O=[N+]([O-])c1cc(N=Nc2c(O)ccc3cc(S(=O)(=O)O)ccc23)c(O)c([N+](=O)[O-])c1`, the TGI in the test on RPMI-8226 leukemia, in the test with SN12C renal, with KM12 colon, in the test on SF-268 CNS, in the test with MOLT-4 leukemia and in the test on NCI/ADR-RES ovarian was greater than 100 µM throughout. Also, the TGI in the test on ACHN renal, in the test with U251 CNS, in the test on OVCAR-3 ovarian and with SK-OV-3 ovarian was greater than 100 µM in each case.

With `CCCCSCC(NC(=O)/C=C/c1c(C)[nH]c(=O)[nH]c1=O)C(=O)OC` (configuration not stated), the TGI in the test with RPMI-8226 leukemia was 267 µM; with SN12C renal it was 269 µM; with KM12 colon it was 157 µM; with SF-268 CNS, 341 µM; in the test with MOLT-4 leukemia it was 205 µM; in the test on NCI/ADR-RES ovarian, greater than 450 µM. Further, the TGI with SF-539 CNS was determined as 254 µM; in the test on U251 CNS, 147 µM; in the test with OVCAR-3 ovarian, 77.2 µM; in the test with SK-OV-3 ovarian, 226 µM.

As to `c1ccc(-c2n(Cc3ccc4ccccc4c3)c3ccccc3[n+]2Cc2ccc3ccccc3c2)cc1`, the GI50 with RPMI-8226 leukemia is 0.208 µM; with SN12C renal it was 0.308 µM; in the test on KM12 colon, 0.321 µM; with NCI/ADR-RES ovarian it was 2.21 µM; with SF-539 CNS it was 0.336 µM; in the test with ACHN renal, 0.975 µM. The GI50 in the test on OVCAR-3 ovarian is 0.259 µM; in the test with SK-OV-3 ovarian, 0.309 µM. Also, the TGI in the test with RPMI-8226 leukemia came to 1.47 µM; with SN12C renal, 1.1 µM; with KM12 colon, 1.2 µM; in the test with NCI/ADR-RES ovarian, 5.93 µM; in the test with SF-539 CNS, 1.29 µM; in the test on ACHN renal, 2.36 µM. In addition, the results for the TGI in the test with OVCAR-3 ovarian and in the test on SK-OV-3 ovarian were 1.03 µM and 1.08 µM, respectively.

On to `COc1ccc(-c2oc3cc(OC(C)=O)cc(OC(C)=O)c3c(=O)c2OC)cc1`, for which the TGI was found to be 38.3 µM in the test with RPMI-8226 leukemia; 46.9 µM with SF-268 CNS; 68.4 µM with MOLT-4 leukemia; 36 µM with NCI/ADR-RES ovarian; 45.8 µM in the test on ACHN renal; 30.6 µM in the test with U251 CNS. The TGI worked out at 38.6 µM in the test with OVCAR-3 ovarian and 80.6 µM in the test on SK-OV-3 ovarian.

For the compound `O=C1c2cccc(O)c2C(=O)c2c(O)cccc21`, the TGI with RPMI-8226 leukemia, in the test on SN12C renal, in the test with KM12 colon, in the test with SF-268 CNS, with MOLT-4 leukemia and with SF-539 CNS was greater than 100 µM in each case. Further, the TGI in the test on ACHN renal, with U251 CNS, in the test on OVCAR-3 ovarian and in the test with SK-OV-3 ovarian was greater than 100 µM each time.

`C[n+]1c2ccccc2c(CNCC(=O)O)c2ccccc21`: the TGI worked out at 1.52 µM in the test with RPMI-8226 leukemia; 2.81 µM in the test with SN12C renal; 11 µM in the test on KM12 colon; 1.9 µM in the test on SF-268 CNS; 0.811 µM in the test with MOLT-4 leukemia; 5.19 µM with SF-539 CNS. The TGI in the test with ACHN renal was 2.59 µM; in the test with U251 CNS, 12.5 µM; with OVCAR-3 ovarian, 6.2 µM; in the test on SK-OV-3 ovarian, 15.7 µM.

On to `CC(=O)OCC1OC(NC(=O)N(CCCl)N=O)C(OC(C)=O)C(OC(C)=O)C1OC(C)=O` (configuration not stated), for which the TGI with RPMI-8226 leukemia is greater than 100 µM; with SN12C renal, greater than 100 µM; in the test with KM12 colon, greater than 100 µM; in the test with SF-268 CNS, greater than 100 µM; in the test with MOLT-4 leukemia, greater than 31.6 µM; in the test on NCI/ADR-RES ovarian it was greater than 100 µM. Moreover, the TGI in the test on SF-539 CNS, in the test with U251 CNS, with OVCAR-3 ovarian and with SK-OV-3 ovarian was greater than 100 µM each time.

Regarding `NC(=O)c1ccc([N+](=O)[O-])cc1`, the TGI with RPMI-8226 leukemia, with SN12C renal, in the test with KM12 colon, with SF-268 CNS, with MOLT-4 leukemia and in the test with SF-539 CNS was greater than 100 µM in each case. In addition, the TGI in the test with U251 CNS, in the test with OVCAR-3 ovarian and in the test with SK-OV-3 ovarian was greater than 100 µM each time.

Consider `C=CCNC1=C2C[C@@H](C)C[C@H](OC)[C@H](O)[C@@H](C)/C=C(\C)[C@H](OC(N)=O)[C@@H](OC)/C=C\C=C(/C)C(=O)NC(=CC1=O)C2=O`, for which the TGI in the test with RPMI-8226 leukemia is 26.2 µM; in the test with SN12C renal, 19.4 µM; with KM12 colon, 0.237 µM; in the test with SF-268 CNS, 49.6 µM; with MOLT-4 leukemia it was 13 µM; with NCI/ADR-RES ovarian, 57.3 µM. The TGI was 9.5 µM in the test with SF-539 CNS; 32.2 µM in the test with ACHN renal; 49.5 µM with U251 CNS; 9.64 µM in the test with OVCAR-3 ovarian; 58.8 µM in the test on SK-OV-3 ovarian.

On to `COc1ccc2c(c1)C(OC)C1c3c(cc4c(c3-2)OCO4)CCN1C` (configuration not stated), for which the TGI in the test with RPMI-8226 leukemia was 20.6 µM; in the test with SN12C renal it was 12.1 µM; with KM12 colon, 18.6 µM; in the test with SF-268 CNS, 20.2 µM; with MOLT-4 leukemia, greater than 51.7 µM; in the test with NCI/ADR-RES ovarian, 7.45 µM. The TGI came to 8.38 µM in the test on SF-539 CNS; 8.03 µM in the test on ACHN renal; 18.9 µM with U251 CNS; 25.1 µM with OVCAR-3 ovarian; 23.1 µM in the test on SK-OV-3 ovarian.

On to `N=C(N)c1ccc(-c2ccc(-c3ccc4ccccc4c3)s2)s1`, for which the GI50 in the test with RPMI-8226 leukemia is 2.3 µM; with SN12C renal, 1.87 µM; in the test on KM12 colon, 1.92 µM; in the test on SF-268 CNS, 2.25 µM; in the test on SF-539 CNS, 1.97 µM; with ACHN renal it was 2.53 µM. Moreover, the GI50 in the test on OVCAR-3 ovarian is 1.89 µM; in the test with SK-OV-3 ovarian it was 20.2 µM. Besides, the TGI in the test with RPMI-8226 leukemia was 5.02 µM; in the test with SN12C renal, 3.74 µM; in the test on KM12 colon it was 4.08 µM; in the test with SF-268 CNS, 5.5 µM; in the test with SF-539 CNS it was 4.57 µM; with ACHN renal, 6.66 µM. The TGI in the test with OVCAR-3 ovarian was 3.7 µM; in the test on SK-OV-3 ovarian it was 42.3 µM.

As to `CCn1c(=O)c(C(=O)O)c(Cl)c2cc3c(cc21)OCO3`, the TGI with RPMI-8226 leukemia, with SN12C renal, in the test on KM12 colon, with SF-268 CNS, in the test with MOLT-4 leukemia and with NCI/ADR-RES ovarian was greater than 100 µM each time. The TGI in the test on SF-539 CNS, with U251 CNS, in the test with OVCAR-3 ovarian and in the test with SK-OV-3 ovarian was greater than 100 µM in each case.

For the compound `C[P+](c1ccccc1)(c1ccc(Cl)cc1)c1ccc(Cl)cc1`, the TGI in the test on RPMI-8226 leukemia is 2.41 µM; with SN12C renal, 51.2 µM; with SF-268 CNS, greater than 100 µM; in the test with NCI/ADR-RES ovarian, greater than 100 µM; in the test with SF-539 CNS it was 65.4 µM; in the test with ACHN renal it was greater than 100 µM. Besides, the TGI with U251 CNS was 39.3 µM; in the test with OVCAR-3 ovarian, 10.5 µM; with SK-OV-3 ovarian, greater than 100 µM.

In the case of `COc1ccc(N2C(=O)/C(=C\c3ccccc3)SC2c2cc(OC)c(OC)c(OC)c2)cc1` (configuration not stated), the TGI in the test on SN12C renal, with KM12 colon, in the test on SF-268 CNS, in the test on MOLT-4 leukemia, with NCI/ADR-RES ovarian and with ACHN renal was greater than 100 µM in each case. For the same compound, the TGI with U251 CNS and in the test with SK-OV-3 ovarian was greater than 100 µM in each case.
